Test results taken from the NIST ThermoML archive (doi:10.1021/je5010214).
± gives the expanded uncertainty stated by the source.

Details: Liquid, Vibrating tube method

CCCCO [butan-1-ol]
Details | mass density [kg/m3]
293.15 K, 9042.1 kPa | 816.992 ± 0.81
293.15 K, 10036 kPa | 817.626 ± 0.82
293.15 K, 11947 kPa | 818.963 ± 0.82
293.15 K, 14941 kPa | 820.924 ± 0.82
293.15 K, 21987 kPa | 825.417 ± 0.83
293.15 K, 27986 kPa | 829.06 ± 0.84
293.15 K, 28066 kPa | 829.163 ± 0.84
293.15 K, 33151 kPa | 832.036 ± 0.85
293.15 K, 34099 kPa | 832.526 ± 0.85
293.15 K, 35000 kPa | 833.078 ± 0.85
293.15 K, 40081 kPa | 835.959 ± 0.86
293.15 K, 42099 kPa | 837.008 ± 0.86
293.15 K, 45068 kPa | 838.658 ± 0.87
293.15 K, 54966 kPa | 843.81 ± 0.89
293.15 K, 58072 kPa | 845.282 ± 0.9
293.15 K, 66045 kPa | 849.224 ± 0.91
293.16 K, 305.2 kPa | 810.686 ± 0.81
293.16 K, 476.4 kPa | 810.81 ± 0.81
293.16 K, 1045.2 kPa | 811.221 ± 0.81
293.16 K, 7096.8 kPa | 815.616 ± 0.81
293.16 K, 17889 kPa | 822.832 ± 0.83
293.16 K, 19992 kPa | 824.147 ± 0.83
293.16 K, 24983 kPa | 827.251 ± 0.84
293.16 K, 29976 kPa | 830.11 ± 0.84
293.16 K, 32232 kPa | 831.521 ± 0.85
293.16 K, 38027 kPa | 834.783 ± 0.86
293.16 K, 48022 kPa | 840.192 ± 0.88
293.16 K, 50085 kPa | 841.31 ± 0.88
293.16 K, 52032 kPa | 842.308 ± 0.88
293.16 K, 60018 kPa | 846.257 ± 0.9
293.16 K, 61962 kPa | 847.209 ± 0.9
293.16 K, 64991 kPa | 848.649 ± 0.91
298.15 K, 98.1 kPa | 806.282 ± 0.81
298.15 K, 305.4 kPa | 806.45 ± 0.81
298.15 K, 854.5 kPa | 806.874 ± 0.81
298.15 K, 1980.9 kPa | 807.747 ± 0.81
298.15 K, 3167.8 kPa | 808.637 ± 0.81
298.15 K, 5067.6 kPa | 810.04 ± 0.81
298.15 K, 7065.3 kPa | 811.55 ± 0.81
298.15 K, 10107 kPa | 813.67 ± 0.82
298.15 K, 20128 kPa | 820.445 ± 0.83
298.15 K, 22004 kPa | 821.641 ± 0.83
298.15 K, 25081 kPa | 823.55 ± 0.84
298.15 K, 33113 kPa | 828.365 ± 0.85
298.15 K, 33924 kPa | 828.845 ± 0.85
298.15 K, 38097 kPa | 831.213 ± 0.86
298.15 K, 40161 kPa | 832.357 ± 0.86
298.15 K, 42029 kPa | 833.462 ± 0.87
298.15 K, 42359 kPa | 833.614 ± 0.87
298.15 K, 45021 kPa | 835.052 ± 0.87
298.15 K, 48107 kPa | 836.745 ± 0.88
298.15 K, 50068 kPa | 837.797 ± 0.88
298.15 K, 55016 kPa | 840.375 ± 0.89
298.15 K, 57931 kPa | 841.819 ± 0.9
298.15 K, 59914 kPa | 842.826 ± 0.9
298.15 K, 62036 kPa | 843.934 ± 0.91
298.15 K, 65018 kPa | 845.412 ± 0.91
298.16 K, 493.7 kPa | 806.599 ± 0.81
298.16 K, 1012.6 kPa | 806.992 ± 0.81
298.16 K, 9120.9 kPa | 813.012 ± 0.81
298.16 K, 11970 kPa | 814.957 ± 0.82
298.16 K, 15220 kPa | 817.234 ± 0.82
298.16 K, 17984 kPa | 819.076 ± 0.83
298.16 K, 28040 kPa | 825.42 ± 0.84
298.16 K, 30089 kPa | 826.686 ± 0.85
298.16 K, 32030 kPa | 827.814 ± 0.85
298.16 K, 35217 kPa | 829.575 ± 0.85
298.16 K, 52020 kPa | 838.835 ± 0.89
298.16 K, 66118 kPa | 845.919 ± 0.92
303.15 K, 304.1 kPa | 802.278 ± 0.81
303.15 K, 498.9 kPa | 802.435 ± 0.81
303.15 K, 900.6 kPa | 802.733 ± 0.81
303.15 K, 979.1 kPa | 802.787 ± 0.81
303.15 K, 1977.6 kPa | 803.554 ± 0.81
303.15 K, 4930.4 kPa | 805.792 ± 0.81
303.15 K, 11975 kPa | 810.901 ± 0.82
303.15 K, 15044 kPa | 812.956 ± 0.82
303.15 K, 19974 kPa | 816.207 ± 0.83
